Data on 31 compounds can be found in patent publication US20230212163A1, “2-(HET)ARYL-SUBSTITUTED CONDENSED HETEROCYCLIC DERIVATIVES AS PEST CONTROL AGENTS” (Bayer Aktiengesellschaft, priority 2020, published 2023).

Common to all, as to type: in vivo
One assay concerns Spodoptera frugiperda. Put plainly: Spodoptera frugiperda spray test (maize leaf discs). Conditions: Spodoptera frugiperda, foliar, 168 h, application rate 100 g/ha, after 7 days. On the procedure:
[table] To produce a suitable active compound formulation, 1 part by weight of active compound is dissolved using the stated parts by weight of solvent and made up with water containing an emulsifier concentration of 1000 ppm until the desired concentration is attained. To produce further test concentrations, the formulation is diluted with emulsifier-containing water. Leaf discs of maize (Zea mays) are sprayed with an active compound formulation of the desired concentration and, after drying, populated with caterpillars of the fall armyworm (Spodoptera frugiperda). After 7 days, the efficacy in % is determined. 100% means that all the caterpillars have been killed; 0% means that no caterpillar has been killed.

For a further assay, the system named is Diabrotica balteata. Put plainly: Diabrotica balteata spray test. Conditions: Diabrotica balteata, 168 h, after 7 days; for pest or weed control at 20 g/ha: application rate 20 g/ha; for pest or weed control at 100 g/ha: application rate 100 g/ha; for pest or weed control at 500 g/ha: application rate 500 g/ha (=160 μg/cavity). On the procedure: [table] To produce a suitable active compound formulation, 1 part by weight of active compound is dissolved using the stated parts by weight of solvent and made up with water containing an emulsifier concentration of 1000 ppm until the desired concentration is attained. To produce further test concentrations, the formulation is diluted with emulsifier-containing water. Pre-swollen wheat grains (Triticum aestivum) are incubated in a multiwell plate filled with agar and a little water for one day (5 seed grains per cavity). The germinated wheat grains are sprayed with an active compound formulation of the desired concentration. Subsequently, each cavity is infected with 10-20 beetle larvae of Diabrotica balteata. After 7 days, the efficacy in % is determined. 100% means that all wheat plants have grown as in the untreated, uninfected control; 0% means that no wheat plant has grown.

In the next assay the test system is Nezara viridula. Nature of the assay: Nezara viridula spray test. Conditions: Nezara viridula, 96 h, application rate 500 g/ha, after 4 days. The procedure: [table] To produce a suitable active compound formulation, 1 part by weight of active compound is dissolved using the stated parts by weight of solvent and made up with water containing an emulsifier concentration of 1000 ppm until the desired concentration is attained. To produce further test concentrations, the formulation is diluted with emulsifier-containing water. Barley plants (Hordeum vulgare) are sprayed with an active compound formulation of the desired concentration and are infected with larvae of the Southern green shield bug (Nezara viridula). After 4 days, the efficacy in % is determined. 100% means that all of the shield bugs have been killed; 0% means that none of the shield bugs have been killed.

SMILES strings stand for the structures.

Turning to `CCS(=O)(=O)c1ccc(-n2ncn(-c3ccc(C#N)c(Cl)c3)c2=O)nc1-c1nc2cc(S(=O)(=O)C(F)(F)F)ccc2o1` [Example I-28], the pest or weed control at 100 g/ha in the assay with Spodoptera frugiperda was found to be 100%. In addition, the pest or weed control at 20 g/ha with Diabrotica balteata was 100%.

In the assay on Nezara viridula, `CCS(=O)(=O)c1ccc(-n2ncn(-c3ccc(F)cc3)c2=O)nc1-c1nc2cc(C(F)(F)F)ncc2o1` [Example I-35] came in with a pest or weed control at 500 g/ha of 100%.

In the assay with Diabrotica balteata, `CCS(=O)(=O)c1ccc(-n2ncn(-c3ccc(C#N)cc3)c2=O)nc1-c1nc2cc(S(=O)(=O)C(F)(F)Cl)ccc2o1` [Example I-10] had a pest or weed control at 20 g/ha of 80% and a pest or weed control at 100 g/ha of 100%. Further, in the assay with Diabrotica balteata (read-out: efficacy), the pest or weed control at 500 g/ha was found to be 100%.

Turning to `CCS(=O)(=O)c1ccc(-n2ncn(C3CC3)c2=O)nc1-c1nc2cc(C(F)(F)C(F)(F)F)ccc2o1` [Example I-50], the pest or weed control at 100 g/ha with Spodoptera frugiperda and with Diabrotica balteata was 100% in each case. The compound further registered a pest or weed control at 20 g/ha with Diabrotica balteata of 100%.

Turning to `CCS(=O)(=O)c1ccc(-n2ncn(C3CCCC3)c2=O)nc1-c1nc2cc(C(F)(F)C(F)(F)F)ccc2o1` [Example I-38], the pest or weed control at 100 g/ha with Spodoptera frugiperda is 100%.

Take `CCS(=O)(=O)c1ccc(-n2ncn(-c3ccc(F)cc3)c2=O)nc1-c1nc2cc(C(F)(F)F)ccc2o1` [Example I-36]: the pest or weed control at 500 g/ha in the assay on Nezara viridula came out at 100%.

For `CCS(=O)(=O)c1ccc(-n2ncn(-c3ccc(Br)c(Cl)c3)c2=O)nc1-c1nc2cc(S(=O)(=O)C(F)(F)F)ccc2o1` [Example I-20], the pest or weed control at 100 g/ha in the assay with Spodoptera frugiperda worked out at 100%. In the assay on Diabrotica balteata, the pest or weed control at 20 g/ha worked out at 100% and the pest or weed control at 100 g/ha was found to be 100%.

Turning to `CCS(=O)(=O)c1ccc(-n2ncn(-c3ccc(F)cn3)c2=O)nc1-c1nc2cc(S(=O)(=O)C(F)(F)F)ccc2o1` [Example I-55], the pest or weed control at 100 g/ha with Spodoptera frugiperda and in the assay on Diabrotica balteata was 100% in each case.

In the case of `CCS(=O)(=O)c1ccc(-n2ncn(-c3ccc(Br)cc3)c2=O)nc1-c1nc2cc(C(F)(F)C(F)(F)F)ccc2o1` [Example I-48], the pest or weed control at 100 g/ha in the assay with Spodoptera frugiperda and in the assay on Diabrotica balteata was 100% in each case.

`CCS(=O)(=O)c1ccc(-n2ncn(-c3ccc(F)cc3)c2=O)nc1-c1nc2cc(S(=O)(=O)C(F)(F)Cl)ccc2o1` [Example I-07] came in with a pest or weed control at 100 g/ha in the assay on Spodoptera frugiperda of 100%. Besides, the pest or weed control at 31.25 g/ha with Diabrotica balteata (application rate 31.25 g/ha (=10 μg/cavity), read-out: efficacy) was 100%. Also, the pest or weed control at 125 g/ha in the assay on Diabrotica balteata (application rate 125 g/ha (=40 μg/cavity), read-out: efficacy) turned out to be 100%. Besides, in the assay with Diabrotica balteata (read-out: efficacy), the pest or weed control at 500 g/ha was determined as 100%.

In turn, `CCS(=O)(=O)c1ccc(-n2ncn(-c3ccc(Cl)cc3)c2=O)nc1-c1nc2cc(S(=O)(=O)C(F)(F)Cl)ccc2o1` [Example I-08] showed a pest or weed control at 100 g/ha in the assay on Spodoptera frugiperda of 100%. In addition, in the assay on Diabrotica balteata, the pest or weed control at 20 g/ha was 100% and the pest or weed control at 100 g/ha was 80%. Further, the pest or weed control at 500 g/ha in the assay on Diabrotica balteata (read-out: efficacy) came out at 100%.

On to `CCS(=O)(=O)c1ccc(-n2ncn(-c3ccc(Cl)cc3)c2=O)nc1-c1nc2cc(OC(F)(F)C(F)(F)F)ccc2o1` [Example I-21], for which the pest or weed control at 100 g/ha in the assay on Spodoptera frugiperda and in the assay on Diabrotica balteata was 100% throughout.

As for `CCS(=O)(=O)c1ccc(-n2ncn(-c3ccc(Br)cc3)c2=O)nc1-c1nc2cc(OC(F)(F)C(F)(F)F)ccc2o1` [Example I-23], the pest or weed control at 100 g/ha in the assay with Spodoptera frugiperda and with Diabrotica balteata was 100% each time.

`CCS(=O)(=O)c1ccc(-n2ncn(-c3ccc(F)cc3)c2=O)nc1-c1nc2cc(OC(F)(F)F)ccc2o1` [Example I-33] displayed a pest or weed control at 500 g/ha in the assay on Nezara viridula of 100%.

Turning to `CCS(=O)(=O)c1ccc(-n2ncn(-c3ccc(Cl)cc3)c2=O)cc1-c1nc2cc(Br)ccc2o1` [Example I-53], the pest or weed control at 100 g/ha in the assay with Spodoptera frugiperda and in the assay with Diabrotica balteata was 100% throughout.

For `CCS(=O)(=O)c1ccc(-n2ncn(-c3cccc(Cl)c3)c2=O)nc1-c1nc2cc(OC(F)(F)C(F)(F)F)ccc2o1` [Example I-25], the pest or weed control at 100 g/ha in the assay with Spodoptera frugiperda was 100%. In the assay on Diabrotica balteata, this compound came in with a pest or weed control at 20 g/ha of 100% and a pest or weed control at 100 g/ha of 100%.

With `CCS(=O)(=O)c1ccc(-n2ncn(-c3ccc(I)cc3)c2=O)nc1-c1nc2cc(S(=O)(=O)C(F)(F)Cl)ccc2o1` [Example I-11], the pest or weed control at 100 g/ha in the assay with Spodoptera frugiperda and in the assay with Diabrotica balteata was 100% each time. Further, the pest or weed control at 500 g/ha in the assay on Diabrotica balteata (read-out: efficacy) is 100%.

`CCS(=O)(=O)c1ccc(-n2ncn(-c3ccc(F)cc3)c2=O)nc1-c1nc2cc(OC(F)(F)C(F)(F)F)ccc2o1` [Example I-22] came in with a pest or weed control at 100 g/ha with Spodoptera frugiperda of 100%. Moreover, in the assay with Diabrotica balteata, the pest or weed control at 20 g/ha turned out to be 100% and the pest or weed control at 100 g/ha stood at 100%.

Regarding `CCS(=O)(=O)c1ccc(-n2ncn(-c3ccc(I)cc3)c2=O)nc1-c1nc2cc(S(=O)(=O)C(F)(F)F)ccc2o1` [Example I-12], the pest or weed control at 100 g/ha with Spodoptera frugiperda came out at 100%. In the assay on Diabrotica balteata, this compound returned a pest or weed control at 20 g/ha of 100% and a pest or weed control at 100 g/ha of 100%. Moreover, the pest or weed control at 500 g/ha with Diabrotica balteata (read-out: efficacy) came to 100%.

Compound `CCS(=O)(=O)c1ccc(-n2ncn(-c3cccc(C#N)c3)c2=O)nc1-c1nc2cc(OC(F)(F)C(F)(F)F)ccc2o1` [Example I-30] had a pest or weed control at 100 g/ha with Spodoptera frugiperda of 100%. In the assay on Diabrotica balteata, the pest or weed control at 20 g/ha turned out to be 100% and the pest or weed control at 100 g/ha amounted to 100%.

Compound `CCS(=O)(=O)c1ccc(-n2ncn(-c3cccc(Br)c3)c2=O)nc1-c1nc2cc(S(=O)(=O)C(F)(F)F)ccc2o1` [Example I-15] displayed a pest or weed control at 100 g/ha with Spodoptera frugiperda of 100%. In the assay with Diabrotica balteata, this compound gave a pest or weed control at 20 g/ha of 100% and a pest or weed control at 100 g/ha of 100%. For the same compound, the pest or weed control at 500 g/ha in the assay with Diabrotica balteata (read-out: efficacy) worked out at 100%.

In the assay on Diabrotica balteata, `CCS(=O)(=O)c1ccc(-n2ncn(-c3ccc(C4(C#N)CC4)cc3)c2=O)nc1-c1nc2cc(S(=O)(=O)C(F)(F)F)ccc2o1` [Example I-17] had a pest or weed control at 20 g/ha of 100% and a pest or weed control at 100 g/ha of 100%. Further, the pest or weed control at 500 g/ha with Diabrotica balteata (read-out: efficacy) worked out at 100%.

Regarding `CCS(=O)(=O)c1ccc(-n2ncn(-c3cccc(Cl)c3)c2=O)nc1-c1nc2cc(S(=O)(=O)C(F)(F)F)ccc2o1` [Example I-13], the pest or weed control at 100 g/ha in the assay with Spodoptera frugiperda and in the assay with Diabrotica balteata was 100% throughout. In the assay with Diabrotica balteata, this compound had a pest or weed control at 20 g/ha of 100%. Moreover, the pest or weed control at 500 g/ha in the assay with Diabrotica balteata (read-out: efficacy) was 100%.

As for `CCS(=O)(=O)c1ccc(-n2ccn(-c3cccc(C4(C#N)CC4)c3)c2=O)nc1-c1nc2cc(C(F)(F)C(F)(F)F)ccc2o1` [Example I-54], the pest or weed control at 100 g/ha with Spodoptera frugiperda and in the assay on Diabrotica balteata was 100% in each case. In the assay on Diabrotica balteata, the pest or weed control at 20 g/ha turned out to be 100%.

`CCS(=O)(=O)c1ccc(-n2ncn(C3CC3)c2=O)nc1-c1nc2cc(OC(F)(F)C(F)(F)F)ccc2o1` [Example I-49]: the pest or weed control at 100 g/ha stood at 100% in the assay on Spodoptera frugiperda and 80% in the assay with Diabrotica balteata. The pest or weed control at 20 g/ha in the assay with Diabrotica balteata stood at 100%.

Compound `CCS(=O)(=O)c1ccc(-n2ncn(-c3ccc(Br)cc3)c2=O)nc1-c1nc2cc(S(=O)(=O)C(F)(F)Cl)ccc2o1` [Example I-09] came in with a pest or weed control at 100 g/ha with Spodoptera frugiperda of 100%. In the assay on Diabrotica balteata, this compound displayed a pest or weed control at 20 g/ha of 80%.

On to `CCS(=O)(=O)c1ccc(-n2ncn(-c3cccc(C4(C#N)CC4)c3)c2=O)nc1-c1nc2cc(OC(F)(F)C(F)(F)F)ccc2o1` [Example I-31], for which the pest or weed control at 100 g/ha in the assay on Spodoptera frugiperda was 100%. Further, the pest or weed control at 20 g/ha in the assay on Diabrotica balteata is 100%.

For `CCS(=O)(=O)c1ccc(-n2ncn(-c3cncc(F)c3)c2=O)nc1-c1nc2cc(S(=O)(=O)C(F)(F)F)ccc2o1` [Example I-40], the pest or weed control at 100 g/ha in the assay on Spodoptera frugiperda and with Diabrotica balteata was 100% in each case.

In the assay on Spodoptera frugiperda, `CCS(=O)(=O)c1ccc(-n2ncn(-c3cccc(Br)c3)c2=O)nc1-c1nc2cc(OC(F)(F)C(F)(F)F)ccc2o1` [Example I-26] displayed a pest or weed control at 100 g/ha of 100%. In addition, in the assay with Diabrotica balteata, the pest or weed control at 20 g/ha came out at 100% and the pest or weed control at 100 g/ha came out at 100%.

For the compound `CCS(=O)(=O)c1ccc(-n2ncn(-c3ccc(Cl)c(Br)c3)c2=O)nc1-c1nc2cc(S(=O)(=O)C(F)(F)F)ccc2o1` [Example I-19], the pest or weed control at 100 g/ha in the assay on Spodoptera frugiperda was found to be 100%. In the assay with Diabrotica balteata, this compound showed a pest or weed control at 20 g/ha of 100% and a pest or weed control at 100 g/ha of 100%.

`CCS(=O)(=O)c1ccc(-n2ncn(-c3cccc(F)c3)c2=O)nc1-c1nc2cc(OC(F)(F)C(F)(F)F)ccc2o1` [Example I-24]: in the assay on Spodoptera frugiperda, the pest or weed control at 100 g/ha turned out to be 100%. Further, in the assay with Diabrotica balteata, the pest or weed control at 20 g/ha worked out at 100% and the pest or weed control at 100 g/ha was determined as 100%.
